Results reported in patent US20240041042A1, “1-(PYRIDYL)-5-AZINYLPYRAZOLE DERIVATIVES, AND THEIR USE FOR CONTROL OF UNDESIRED PLANT GROWTH” (Bayer Aktiengesellschaft, priority 2020, published 2024).
Read-outs that look alike come from different tables or passages of the source.

What was measured:
Assay type in all cases: in vivo
Lolium rigidum (LOLRI) [1] = assay: Post-emergence herbicidal action against LOLRI
How it was run: (§1)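 Rates were 320 g/ha or below, applied as aqueous WP/EC spray with 0.5% additive (600 l/ha) onto one-leaf-stage plants. About 3 weeks later in the greenhouse, damage was scored visually against untreated plants on a 0–100% scale, where 100% means plants died.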

[2] = tested on: Polygonum convolvulus (POLCO); assay: Post-emergence herbicidal action against POLCO
How it was run: as §1

[3] = tested on: Polygonum convolvulus (POLCO); assay: Pre-emergence herbicidal action against POLCO
How it was run: (§2)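 Pre-emergence soil-surface spray of compound, formulated as wettable powder or emulsion concentrate, in aqueous suspension or emulsion with 0.5% additive (600 l/ha; rate 320 g/ha or less). Activity rated visually after roughly 3 weeks in the greenhouse as a percentage of untreated controls, 0% meaning no difference.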

[4] = tested on: Matricaria inodora (MATIN); assay: Post-emergence herbicidal action against MATIN
Procedure: Seeds of monocotyledonous and dicotyledonous weeds and crop plants are placed in sandy loam in plastic or organic planting pots, covered with soil and cultivated in a greenhouse under controlled growth conditions. 2 to 3 weeks after sowing, the test plants are treated at the one-leaf stage. The compounds of the invention, formulated in the form of wettable powders (WP) or as emulsion concentrates (EC), are then sprayed onto the green parts of the plants as aqueous suspension or emulsion with addition of 0.5% additive at a water application rate of 600 l/ha (converted). After the test plants have been kept in the greenhouse under optimum growth conditions for about 3 weeks, the activity of the preparations is rated visually in comparison to untreated controls. For example, 100% activity=the plants have died, 0% activity=like control plants.
Tables B1 to B13 below show the effects of selected compounds of the general formula (I) according to Table 1 on various harmful plants and at an application rate corresponding to 320 g/ha or lower, which were obtained by the experimental procedure mentioned above. The appendices “a”, “b” and “c” give differentiation by dosage used with otherwise the same harmful plants tested.

[5] = tested on: Echinochloa crus-galli (ECHCG); assay: Post-emergence herbicidal action against ECHCG; settings: dosage 320 g/ha
How it was run: as §1

Setaria viridis (SETVI) [6] = assay: Post-emergence herbicidal action against SETVI
How it was run: as §1

Avena fatua (AVEFA) [7] = assay: Pre-emergence herbicidal action against AVEFA; settings: visual scoring after about 3 weeks vs untreated controls
How it was run: as §2

[8] = tested on: Verconica persica (VERPE); assay: Post-emergence herbicidal action against VERPE
How it was run: as §1

Viola tricolor (VIOTR) = assay: Pre-emergence herbicidal action against VIOTR
How it was run: as §2

Avena fatua (AVEFA) [9] = assay: Post-emergence herbicidal action against AVEFA; settings: visual rating about 3 weeks after treatment
How it was run: as §1

[10] = tested on: Matricaria inodora (MATIN); assay: Pre-emergence herbicidal action against MATIN; settings: dosage 320 g/ha
How it was run: as §2

[11] = tested on: Pharbitis purpurea (PHBPU); assay: Pre-emergence herbicidal action against PHBPU; settings: dosage 320 g/ha
How it was run: as §2

Oryza sativa (ORYSA) = settings: crop plant compatibility
How it was run: (§3)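 Test crops were treated 2 to 3 weeks after sowing, once they reached one leaf, by spraying compound in water with 0.5% additive at 600 l/ha. Visual scoring compared them with untreated controls roughly 3 weeks on, and appendices a, b and c denote different doses.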

[12] = tested on: Alopecurus myosuroides (ALOMY); assay: Pre-emergence herbicidal action against ALOMY; settings: scored visually after about 3 weeks, 100% = plants have died
How it was run: as §2

[13] = tested on: Amaranthus retroflexus (AMARE); assay: Pre-emergence herbicidal action against AMARE; settings: visual scoring after about 3 weeks vs untreated controls
How it was run: as §2

[14] = tested on: Pharbitis purpurea (PHBPU); assay: Post-emergence herbicidal action against PHBPU; settings: dosage 320 g/ha
How it was run: as §1

[15] = tested on: Amaranthus retroflexus (AMARE); assay: Post-emergence herbicidal action against AMARE
How it was run: as §1

[16] = tested on: Echinochloa crus-galli (ECHCG); assay: Pre-emergence herbicidal action against ECHCG
How it was run: as §2

[17] = tested on: Alopecurus myosuroides (ALOMY); assay: Post-emergence herbicidal action against ALOMY; settings: visual rating about 3 weeks after treatment vs untreated controls (100% = plants have died, 0% = like control plants)
How it was run: as §1

Setaria viridis (SETVI) [18] = assay: Pre-emergence herbicidal action against SETVI
How it was run: as §2

[19] = tested on: Verconica persica (VERPE); assay: Pre-emergence herbicidal action against VERPE
How it was run: as §2

Lolium rigidum (LOLRI) [20] = assay: Pre-emergence herbicidal action against LOLRI
How it was run: as §2

[21] = tested on: Abutilon theophrasti (ABUTH); assay: Post-emergence herbicidal action against ABUTH; settings: 80 g/ha, visual rating about 3 weeks after treatment vs untreated controls (100% = plants have died, 0% = like control plants)
How it was run: as §1

Zea mays (ZEAMX) = settings: 20 g/ha, ZEAMX, effect in comparison to untreated controls
How it was run: as §3

[22] = 80 g/ha, visual rating about 3 weeks after treatment vs untreated controls (100% = plants have died, 0% = like control plants)

COC(=O)[C@H](C)NC(=O)COc1nn(-c2ccccn2)c(-c2ccc(F)nc2)c1Cl [Example I-87]
90%: Pre-emergence action against POLCO in % ([3]; dosage 320 g/ha) | Pre-emergence action against AVEFA in % (Avena fatua (AVEFA) [7]; 320 g/ha) | Post-emergence action against VERPE in % ([8]; 320 g/ha, VERPE) | Post-emergence action against AVEFA in % (Avena fatua (AVEFA) [9]; 320 g/ha) | Pre-emergence action against MATIN in % [10] | Pre-emergence action against PHBPU in % [11] | Pre-emergence action against ALOMY ([12]; 80 g/ha) | Pre-emergence action against AMARE in % ([13]; 80 g/ha) | Post-emergence action against PHBPU in % [14] | Post-emergence action against ALOMY in % ([17]; 320 g/ha) | Pre-emergence action against SETVI in % (Setaria viridis (SETVI) [18]; dosage 80 g/ha) | Pre-emergence action against VERPE in % ([19]; dosage 320 g/ha)
80%: Post-emergence action against LOLRI in % (Lolium rigidum (LOLRI) [1]; dosage 320 g/ha) | Post-emergence action against POLCO in % ([2]; dosage 80 g/ha) | Post-emergence action against POLCO in % ([2]; dosage 320 g/ha) | Pre-emergence action against POLCO in % ([3]; dosage 80 g/ha) | Post-emergence action against MATIN in % ([4]; dosage 320 g/ha) | Post-emergence action against ECHCG in % [5] | Post-emergence action against SETVI in % (Setaria viridis (SETVI) [6]; dosage 80 g/ha) | Post-emergence action against SETVI in % (Setaria viridis (SETVI) [6]; dosage 320 g/ha) | Pre-emergence action against AVEFA in % (Avena fatua (AVEFA) [7]; 80 g/ha) | Post-emergence action against VERPE in % ([8]; dosage 80 g/ha) | Pre-emergence action against VIOTR in % (Viola tricolor (VIOTR); 320 g/ha, Viola tricolor) | Post-emergence action against AVEFA in % (Avena fatua (AVEFA) [9]; 80 g/ha) | Post-emergence action against AMARE in % [15, 22] | Post-emergence action against AMARE in % ([15]; 320 g/ha, visual rating about 3 weeks after treatment) | Post-emergence action against ALOMY in % ([17]; 80 g/ha) | Pre-emergence action against VERPE in % ([19]; dosage 80 g/ha)
0%: Post-emergence action against ORYSA in % (Oryza sativa (ORYSA); 80 g/ha, effect in comparison to untreated controls)
100%: Pre-emergence action against ALOMY ([12]; 320 g/ha) | Pre-emergence action against AMARE in % ([13]; 320 g/ha) | Pre-emergence action against ECHCG in % ([16]; dosage 80 g/ha) | Pre-emergence action against ECHCG in % ([16]; dosage 320 g/ha) | Pre-emergence action against SETVI in % (Setaria viridis (SETVI) [18]; dosage 320 g/ha) | Pre-emergence action against LOLRI in % (Lolium rigidum (LOLRI) [20]; dosage 320 g/ha)

CC(C)=NOC(=O)[C@@H](C)Oc1nn(-c2ncccc2F)c(-c2ccc(F)nc2)c1Br [Example I-374]
80%: Pre-emergence action against POLCO in % ([3]; dosage 80 g/ha) | Post-emergence action against MATIN in % ([4]; dosage 80 g/ha) | Post-emergence action against VERPE in % ([8]; dosage 80 g/ha) | Post-emergence action against ABUTH in % [21] | Post-emergence action against AMARE in % [15, 22] | Pre-emergence action against LOLRI in % (Lolium rigidum (LOLRI) [20]; dosage 80 g/ha)
90%: Post-emergence action against LOLRI in % (Lolium rigidum (LOLRI) [1]; dosage 80 g/ha) | Pre-emergence action against POLCO in % ([3]; dosage 320 g/ha) | Post-emergence action against SETVI in % (Setaria viridis (SETVI) [6]; dosage 80 g/ha) | Pre-emergence action against VIOTR in % (Viola tricolor (VIOTR); dosage 80 g/ha) | Post-emergence action against AVEFA in % (Avena fatua (AVEFA) [9]; 80 g/ha) | Pre-emergence action against MATIN in % [10] | Pre-emergence action against PHBPU in % [11] | Pre-emergence action against ALOMY ([12]; 80 g/ha)
100%: Pre-emergence action against AVEFA in % (Avena fatua (AVEFA) [7]; 320 g/ha) | Pre-emergence action against VIOTR in % (Viola tricolor (VIOTR); 320 g/ha, Viola tricolor) | Pre-emergence action against ALOMY ([12]; 320 g/ha) | Pre-emergence action against AMARE in % ([13]; 80 g/ha) | Pre-emergence action against AMARE in % ([13]; 320 g/ha) | Pre-emergence action against ECHCG in % ([16]; dosage 320 g/ha) | Post-emergence action against ALOMY in % ([17]; 80 g/ha) | Pre-emergence action against SETVI in % (Setaria viridis (SETVI) [18]; dosage 320 g/ha) | Pre-emergence action against VERPE in % ([19]; dosage 320 g/ha) | Pre-emergence action against LOLRI in % (Lolium rigidum (LOLRI) [20]; dosage 320 g/ha)
10%: Post-emergence action against ORYSA in % (Oryza sativa (ORYSA); 20 g/ha, effect vs untreated controls) | Post-emergence action against ZEAMX in % (crop plant compatibility) (Zea mays (ZEAMX))
